Common to all, as to type: binding, Paenibacillus sp. FPU-7
The target in assay [1] is T1, NagB1.
T1 construct: recombinant without Met1–Ser21 signal peptide and Cys22–Phe48 (starts at Thr49), C-terminal LEHHHHHH
Nature of the assay: SPR (Biacore X100), DSF. On the technique in general: Surface plasmon resonance follows binding to a sensor surface in real time, without labels.

Assay [2] addresses T2, NagB2.
T2 construct: recombinant without signal peptide (Met1 to Ala20), C-terminal LEHHHHHH
Kind of assay: SPR (Biacore X100), crystal structure at […] Å, DSF.

In assay [3] the target is T2, NagB2. Nature of the assay: SPR (Biacore X100), crystal structure at […] Å, DSF. The source holds these as a separate data set.
Assay [4] has as its target T1, NagB1. Kind of assay: SPR (Biacore X100), crystal structure at […] Å, DSF.

Where two headings read alike, the source gives them in different places.

With `CC(=O)N[C@H]1[C@H](O[C@H]2[C@H](O)[C@@H](NC(C)=O)C(O)O[C@@H]2CO)O[C@H](CO)[C@@H](O[C@@H]2O[C@H](CO)[C@@H](O)[C@H](O)[C@H]2NC(C)=O)[C@@H]1O` (stereo partly shown) [(GlcNAc)3, N,N′,N′′-triacetylchitotoriose], the values for the Kd at NagB1 [1] and at NagB2 [2] were 2970 nM and 1120 nM, respectively.
With `CC(=O)N[C@H]1[C@H](O[C@H]2[C@H](O)[C@@H](NC(C)=O)C(O)O[C@@H]2CO)O[C@H](CO)[C@@H](O)[C@@H]1O` (stereo partly shown) [(GlcNAc)2, N,N′-diacetylchitobiose], the Kd at NagB2 [3] is 190 nM; on NagB1 [4], 173 nM.

Usually Kd stands for the free concentration of one partner at which half of the binding sites on the other are occupied at equilibrium, for simple one-to-one binding. Read a high Kd as a looser complex.

The record behind these values is article PMC8233162, “Structural characterization of two solute-binding proteins for N,N′-diacetylchitobiose/N,N′,N′′-triacetylchitotoriose of the gram-positive bacterium, Paenibacillus sp. str. FPU-7” (Journal of Structural Biology: X, 2021).
